Patent EP4534147A1, “STING ANTAGONIST COMPOUNDS” (Sulis Therapeutics ApS, priority 2023, dated 2025)

Tests used:
STING = target: T1, STING (Homo sapiens, UniProt Q86WV6); test: Human FB STING antagonist assay (IFN-a/b release); assay type: cell-based; conditions: Human skin fibroblasts, 2h pre-treatment, 300 nM GSK STING agonist (CAS number: 2138299-34-8) for 20 h, release of IFN-a/b by HEK-Blue IFN-α/β bioassay
T1 construct: endogenous in cells; host or cells: human skin fibroblasts
Procedure: STING antagonist activity can be determined by a human fibroblast antagonist assay. For this, human skin fibroblasts are pre-treated for 2h with a serial dilution of the compound, and are then stimulated for 20 hours with 300 nM STING agonist (e.g. from GSK, CAS number: 2138299-34-8). Supernatants are then harvested and assessed for IFN-a/b release, which indicates STING activation. IFN-a/b concentration in the supernatant is determined, e.g. using an IFN-α/β bioassay. IC50 values are calculated using a non-linear regression fitting, variable slope (4 parameters).
Human skin fibroblasts were pre-treated for 2h with a serial dilution of test compound followed by stimulation with mock or 300 nM GSK STING agonist (CAS number: 2138299-34-8). Supernatants were harvested after 20 h of STING agonist stimulation. Release of IFN-a/b was determined using HEK-Blue IFN-α/β bioassay (Invivogen). Cellular viability was assessed using Alamar Blue HS assay. IC50 values were estimated using a non-linear regression fitting, variable slope (4 parameters) in GraphPad Prism 9.3.1.

[1] = target: T2, C-terminal domain (CTD) of human STING (Homo sapiens, UniProt Q86WV6); test: STING binding TR-FRET assay (CisBio Human STING WT Binding Kit); set-up: purchased CisBio 64BDSTGPEG; conditions: recombinant human STING with His-tag, D2-labeled active site probe, 60 min at room temperature
Procedure: STING binding can be determined by a time-resolved FRET assay. For instance, a STING protein having a His-tag can be used. A D2-labeled active site probe can be used to accept 620 nm emission from Anti-HIS-Tb-STING. Increased fluorescence is measured at 665 nm. Molecules that compete for the probe binding site will result in a lower 665 nm signal. The assay can be performed in low-volume white 96-well plates containing 5 µL compounds in an appropriate diluent buffer. Following 60 minutes incubation at room temperature in the dark, fluorescence emission at 665 nm is measured following 330 nm xenon flash excitation. pIC50 values can be determined using a standard four parameter curve fit.
The affinity of molecules to the C-terminal domain (CTD) of human STING was determined using a commercial Human STING WT Binding Kit (CisBio, cat.# 64BDSTGPEG). In this time-resolved FRET assay, a recombinant human STING protein construct with a His-tag was employed. When bound to STING, a D2-labeled active site probe accepts the 620 nm emission from Anti-HIS-Tb-STING and an increase in fluorescence is measured at 665 nm. Molecules that compete for the probe binding site will result in a low 665 nm signal. The assay was run in CisBio low-volume white 96-well plates (catalog# 66PL96005) containing 5 µL compounds in Diluent Buffer (supplied with the CisBio kit). A solution of 1xSTING, 1x Anti-HIS-Tb and 1X D2-probe in TB detection buffer (kit supplied) was added to the plate. Plates were centrifuged for 2 min at 500 rpm, incubated for 60 min at room temperature in the dark, and then fluorescence emission at 665 nm following 330 nm xenon flash excitation on an BioTek synergy H1 multimode reader (Agilent) was measured. The plC50 values were determined using a standard four parameter curve fit in GraphPad Prism.
Target sequence in this assay (Q86WV6 135-379 limits assumed): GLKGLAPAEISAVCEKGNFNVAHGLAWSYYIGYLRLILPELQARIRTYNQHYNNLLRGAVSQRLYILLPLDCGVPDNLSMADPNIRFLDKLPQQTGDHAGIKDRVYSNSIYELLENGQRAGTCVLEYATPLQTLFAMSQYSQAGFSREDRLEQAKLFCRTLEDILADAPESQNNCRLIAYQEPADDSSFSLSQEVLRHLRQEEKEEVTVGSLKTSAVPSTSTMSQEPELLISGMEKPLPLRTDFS

[2] = target: T2, C-terminal domain (CTD) of human STING; test: STING binding FP assay II (as FP assay I, lower STING concentration); set-up: recombinant human STING protein (155-379); conditions: 7 nM STING in buffer A, 4 nM fluorescein-labelled STING ligand (Probe 1)
Procedure: (§1) The interaction between molecules and the C-terminal domain (CTD) of human STING was evaluated using a competition binding assay. In this assay, recombinant human STING protein (155-379) and a STING binding fluorescent probe were employed. Upon binding of the probe to STING, the rotation of the fluorescent probe is slowed due to the larger molecular size of the protein-bound complex. As a result, emitted light retains its plane of polarization, leading to an increase in fluorescence polarization. Molecules competing for the probe binding site displace the probe, which leads to rapid randomization of the polarization plane of the emitted light and a subsequent decrease in measured fluorescence polarization signal. Change in polarization was measured, allowing a comparative evaluation of the binding affinities of different compounds to the target protein.
(§2) The assay was performed in 96-well plates (ThermoFisher, cat.# 237108) containing 100 µl : 10 µL test compound in 10% DMSO and buffer A (150 mM NaCl, 50 mM HEPES pH 7.5, 1 mM DTT) + 90 µL prepared master mix solution of: 4 nM fluorescein-labelled STING ligand (Probe 1; synthesis described above) in buffer A + 0.055% Tween-20 (v/v) and 35 nM STING in buffer A. Post mixing, plates were agitated at 600 rpm and incubated for 20 min at room temperature. Subsequent measurements of the fluorescence polarization signal were made on a BioTek Synergy-H1 plate reader, using a polarization filter; excitation: 485/20 nm, emission: 528/20 nm) with a gain-setting of 75. IC50 values were determined using a standard non-linear regression four-parameter curve fit in Graphpad Prism.
The procedure for STING binding FP assay II is the same as described for STING binding FP assay I, except for a lower STING concentration. In STING binding FP assay II, a concentration of 7 nM STING in buffer A was used.
Target sequence in this assay (Q86WV6 155-379): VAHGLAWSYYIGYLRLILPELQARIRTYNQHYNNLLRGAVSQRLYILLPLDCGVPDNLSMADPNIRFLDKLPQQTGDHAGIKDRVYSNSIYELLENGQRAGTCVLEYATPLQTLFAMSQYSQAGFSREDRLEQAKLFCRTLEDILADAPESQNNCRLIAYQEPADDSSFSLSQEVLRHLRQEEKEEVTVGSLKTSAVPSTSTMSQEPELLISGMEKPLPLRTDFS

[3] = target: T2, C-terminal domain (CTD) of human STING; test: STING binding FP assay I (fluorescence polarization competition binding); set-up: recombinant human STING protein (155-379); conditions: recombinant human STING protein (155-379), 35 nM STING, 4 nM fluorescein-labelled STING ligand (Probe 1), 20 min at room temperature
Procedure: as §1, §2
Target sequence in this assay (Q86WV6 155-379): as above

T1 sequence (Q86WV6 whole entry): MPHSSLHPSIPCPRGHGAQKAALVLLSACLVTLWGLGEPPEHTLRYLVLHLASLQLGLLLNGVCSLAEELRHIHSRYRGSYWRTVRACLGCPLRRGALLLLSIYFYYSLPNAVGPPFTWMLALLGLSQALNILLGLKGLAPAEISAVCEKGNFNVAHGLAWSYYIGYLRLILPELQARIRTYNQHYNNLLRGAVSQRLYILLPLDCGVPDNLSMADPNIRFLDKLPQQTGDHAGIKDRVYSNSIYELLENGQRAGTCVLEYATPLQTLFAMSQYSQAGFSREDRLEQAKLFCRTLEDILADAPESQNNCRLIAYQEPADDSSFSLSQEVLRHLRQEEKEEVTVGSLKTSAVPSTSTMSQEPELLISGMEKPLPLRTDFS

SMILES | IC50 (STING) | IC50 [1] | IC50 [2] | IC50 [3]
CCn1nc(C)cc1C(=O)N=c1n(C)c2cc(C(N)=O)ccc2n1CCC(CCn1c(=NC(=O)c2cc(C)nn2CC)n(C)c2cc(C(N)=O)ccc21)OCC(=O)N1CCC[C@H]1c1cccc(OC)c1 (stereo partly drawn) [Example 11, 1-(3-{2-[(S)-2-(3-Methoxyphenyl)-1-pyrrolidinyl]-2-oxoethoxy}-5-{5-carbamoyl-2-[(1-ethyl-3-methyl-5-pyrazolyl)carbonylimino]-3-methyl-2,3-dihydro-1H-1 ,3-benzimidazol-1-yl}pentyl)-2-[(1-ethyl-3-methyl-5-pyrazolyl)carbonylimino]-3-methyl-2,3-dihydro-1H-1,3-benzimidazole-5-carboxamide] | 3400 nM | 0.862 nM | 2 nM | –
CCn1nc(C)cc1C(=O)N=c1n(C)c2cc(C(N)=O)ccc2n1CCC(CCn1c(=NC(=O)c2cc(C)nn2CC)n(C)c2cc(C(N)=O)ccc21)OCC(=O)N1CCC[C@@H]1c1ccc(OC)cc1 (stereo partly drawn) [Example 20, 1-(3-{2-[(R)-2-(p-Methoxyphenyl)-1-pyrrolidinyl]-2-oxoethoxy}-5-{5-carbamoyl-2-[(1-ethyl-3-methyl-5-pyrazolyl)carbonylimino]-3-methyl-2,3-dihydro-1H-1,3-benzimidazol-1-yl}pentyl)-2-[(1-ethyl-3-methyl-5-pyrazolyl)carbonylimino]-3-methyl-2,3-dihydro-1H-1,3-benzimidazole-5-carboxamide] | – | 0.95 nM | – | –
CCn1nc(C)cc1C(=O)N=c1n(C)c2cc(C(N)=O)ccc2n1CCC(CCn1c(=NC(=O)c2cc(C)nn2CC)n(C)c2cc(C(N)=O)ccc21)OCC(=O)Nc1ccncn1 (stereo not drawn) [Example 8, 1-{3-[(N-4-Pyrimidinylcarbamoyl)methoxy]-5-{5-carbamoyl-2-[(1-ethyl-3-methyl-5-pyrazolyl)carbonylimino]-3-methyl-2,3-dihydro-1H-1,3-benzimidazol-1-yl}pentyl}-2-[(1-ethyl-3-methyl-5-pyrazolyl)carbonylimino]-3-methyl-2,3-dihydro-1H-1,3-benzimidazole-5-carboxamide] | 4700 nM | – | – | < 30 nM
CCn1nc(C)cc1C(=O)N=c1n(C)c2cc(C(N)=O)ccc2n1CCC(CCn1c(=NC(=O)c2cc(C)nn2CC)n(C)c2cc(C(N)=O)ccc21)OCC(=O)N1[C@H](C)COC[C@@H]1C (stereo partly drawn) [Example 17, 1-(3-{2-[(3R,5S)-3,5-Dimethyl-4-morpholinyl]-2-oxoethoxy}-5-{5-carbamoyl-2-[(1-ethyl-3-methyl-5-pyrazolyl)carbonylimino]-3-methyl-2,3-dihydro-1H-1,3-benzimidazol-1-yl}pentyl)-2-[(1-ethyl-3-methyl-5-pyrazolyl)carbonylimino]-3-methyl-2,3-dihydro-1H-1,3-benzimidazole-5-carboxamide] | – | 0.54 nM | – | –
CCn1nc(C)cc1C(=O)N=c1n(C)c2cc(C(N)=O)ccc2n1CCC(CCn1c(=NC(=O)c2cc(C)nn2CC)n(C)c2cc(C(N)=O)ccc21)OCC(=O)N(Cc1ccc(OC)cc1)C1CC1 (stereo not drawn) [Example 14, 1-[3-({N-Cyclopropyl[(p-methoxyphenyl)methyl]carbamoyl}methoxy)-5-{5-carbamoyl-2-[(1-ethyl-3-methyl-5-pyrazolyl)carbonylimino]-3-methyl-2,3-dihydro-1H-1,3-benzimidazol-1-yl}pentyl]-2-[(1-ethyl-3-methyl-5-pyrazolyl)carbonylimino]-3-methyl-2,3-dihydro-1H-1,3-benzimidazole-5-carboxamide] | – | 0.659 nM | – | –
CCn1nc(C)cc1C(=O)N=c1n(C)c2cc(C(N)=O)ccc2n1CCC(CCn1c(=NC(=O)c2cc(C)nn2CC)n(C)c2cc(C(N)=O)ccc21)OCC(=O)N(Cc1ccc(OC)cc1)Cc1ccccn1 (stereo not drawn) [Example 19, 1-(5-{5-Carbamoyl-2-[(1-ethyl-3-methyl-5-pyrazolyl)carbonylimino]-3-methyl-2,3-dihydro-1H-1,3-benzimidazol-1-yl}-3-({[(p-methoxyphenyl)methyl][(2-pyridyl)methyl]carbamoyl}methoxy)pentyl)-2-[(1-ethyl-3-methyl-5-pyrazolyl)carbonylimino]-3-methyl-2,3-dihydro-1H-1,3-benzimidazole-5-carboxamide] | – | 1.11 nM | – | –
CCn1nc(C)cc1C(=O)N=c1n(C)c2cc(C(N)=O)ccc2n1CCC(CCn1c(=NC(=O)c2cc(C)nn2CC)n(C)c2cc(C(N)=O)ccc21)OCC(=O)NC1CCN(C)CC1 (stereo not drawn) [Example 10, 1-{3-[(N-1-Methyl-4-piperidylcarbamoyl)methoxy]-5-{5-carbamoyl-2-[(1-ethyl-3-methyl-5-pyrazolyl)carbonylimino]-3-methyl-2,3-dihydro-1H-1,3-benzimidazol-1-yl}pentyl}-2-[(1-ethyl-3-methyl-5-pyrazolyl)carbonylimino]-3-methyl-2,3-dihydro-1H-1,3-benzimidazole-5-carboxamide] | – | 0.869 nM | 3.5 nM | –
CCNC(=O)COC(CCn1c(=NC(=O)c2cc(C)nn2CC)n(C)c2cc(C(N)=O)ccc21)CCn1c(=NC(=O)c2cc(C)nn2CC)n(C)c2cc(C(N)=O)ccc21 (stereo not drawn) [Example 29, 1-{3-[(N-Ethylcarbamoyl)methoxy]-5-{5-carbamoyl-2-[(1-ethyl-3-methyl-5-pyrazolyl)carbonylimino]-3-methyl-2,3-dihydro-1H-1,3-benzimidazol-1-yl}pentyl}-2-[(1-ethyl-3-methyl-5-pyrazolyl)carbonylimino]-3-methyl-2,3-dihydro-1H-1,3-benzimidazole-5-carboxamide] | 5200 nM | – | 7.1 nM | –
CCn1nc(C)cc1C(=O)N=c1n(C)c2cc(C(N)=O)ccc2n1CCC(CCn1c(=NC(=O)c2cc(C)nn2CC)n(C)c2cc(C(N)=O)ccc21)OCC(=O)N(CCOC)CCOC (stereo not drawn) [Example 13, 1-(3-{[Bis(2-methoxyethyl)carbamoyl]methoxy}-5-{5-carbamoyl-2-[(1-ethyl-3-methyl-5-pyrazolyl)carbonylimino]-3-methyl-2,3-dihydro-1H-1,3-benzimidazol-1-yl}pentyl)-2-[(1-ethyl-3-methyl-5-pyrazolyl)carbonylimino]-3-methyl-2,3-dihydro-1H-1,3-benzimidazole-5-carboxamide] | 7800 nM | – | 2 nM | –
